Tests used:
pERK in A375 cells = experiment: In Cell Western (ICW) assay, pERK in A375 cells; format: cell-based; settings: Homo sapiens, A-375, 3 h treatment
Method: Cell lines A375, A2058 and RKO obtained from the ATCC as provided above, were grown, and after attaining ˜80% confluency were trypsinized, centrifuged and resuspended in fresh media. The cells were seeded at the specified density (20,000 to 50,000) in a 96-well format black-well clear bottom plate (Corning) and incubated overnight at 37° C. in a 5% CO2 incubator. The next day, compound dilutions of test compounds were prepared in 100% DMSO followed by dilutions in respective media. Treatment of test compounds was performed for 3 h at 37° C. in 5% CO2 incubator. Following 3 h drug treatment, the conditional media was discarded and the cells were washed once with cPBS (PBS containing 0.1% magnesium chloride hexahydrate and 0.1% anhydrous calcium chloride) and fixed with 4% paraformaldehyde in cPBS for 1 h at rt. After fixing, the cells were given three washes using cPBST (cPBS containing 0.1% Triton™ X-100 reagent) and then blocked using blocking solution (5% skimmed milk powder or 5% BSA prepared in cPBST) for 2 h at rt with shaking at 300 rpm. The cells were again washed thrice with cPBST and incubated with primary antibody phospho-p44/42 MAPK(Erk1/2)(Thr202/204) antibody (Cell Signaling, Catalog # 9101L), phospho S6 ribosomal protein (Cell Signaling, Catalog #4858L), phospho AKT (Thr 308) (Cell Signaling, Catalog #9275) or phospho AKT (Ser 473) (Cell Signaling, Catalog #4060L) in specified dilutions (1:500-1:2500), prepared in respective blocking solutions, in a racker overnight at 4° C. The next day, the cells were washed with 1× Delfia® wash buffer (4×1 wash) and incubated with secondary antibody (Delfia®-Eu-N1 labeled anti-rabbit antibody; PerkinElmer, Catalog #AD0105; dilutions: 1:2000 to 1:6000 in Delfia® assay buffer (PerkinElmer, Catalog #1244-111)) for 2 h at rt in the dark at 300 rpm. The cells were then given four washes with 1× Delfia® wash buffer and incubated with Wallac Delfia® Enhancement solution (100 μL; PerkinElmer, Catalog #1244-105) for 20 min at rt in the dark at 300 rpm. The fluorescence emission was then read at 615 nm with an excitation wavelength of 340 nm using a Victor V5 Fluorometer (Perkin Elmer, US). The cells were then washed once with 1×cPBS and incubated with 100 μL of 0.5 mg/mL of Hoechst 33258 dye prepared in cPBS and read at 460 nm with 355 nm excitation, thereby evaluating the correction factor.
The % inhibition for the test compounds of formula (I) (new chemical entities (NCEs)) was calculated keeping DMSO control as 0% and the IC50 values were determined using sigmoidal dose response curve fit in GraphPad Prism® v5 software.

A375 cells = experiment: XTT assay for cell viability, A375 cells; format: cell-based; settings: Homo sapiens, A-375, 72 h
Method: Cell lines (A375 ATCC No. CRL-1619, A2058 ATCC No. CRL-11147 and RKO ATCC No. CRL-2577, American Type Culture Collection (ATCC), Manassas Va.) once attaining ˜80% confluency were trypsinized, centrifuged and resuspended in fresh media. Cells (1000-2000/per well) were seeded in 96-well plate and incubated over-night at 37° C. in a 5% CO2 incubator. Compound dilutions were prepared in 100% DMSO followed by dilutions in the respective media. The cells were treated with NCEs for 72 h at 37° C. in 5% CO2 incubator. After 72 h, freshly prepared XTT (1 mg/ml)/PMS (25 μM) solution was added, incubated for 2 to 3 h at 37° C. and the absorbance was measured at 450 nm using an ELISA plate reader. Keeping DMSO control as 100%, the effect of the compound to inhibit the cell proliferation was calculated and the GI50 values were determined using sigmoidal dose response curve fit in GraphPad Prism® v5 software.

mTOR kinase = biological target: T1, mTOR kinase (Homo sapiens, UniProt P42345); experiment: mTOR kinase TR-FRET assay; format: biochemical
T1 construct: purchased Millipore, US
T1 sequence (P42345 1362-2549 limits assumed): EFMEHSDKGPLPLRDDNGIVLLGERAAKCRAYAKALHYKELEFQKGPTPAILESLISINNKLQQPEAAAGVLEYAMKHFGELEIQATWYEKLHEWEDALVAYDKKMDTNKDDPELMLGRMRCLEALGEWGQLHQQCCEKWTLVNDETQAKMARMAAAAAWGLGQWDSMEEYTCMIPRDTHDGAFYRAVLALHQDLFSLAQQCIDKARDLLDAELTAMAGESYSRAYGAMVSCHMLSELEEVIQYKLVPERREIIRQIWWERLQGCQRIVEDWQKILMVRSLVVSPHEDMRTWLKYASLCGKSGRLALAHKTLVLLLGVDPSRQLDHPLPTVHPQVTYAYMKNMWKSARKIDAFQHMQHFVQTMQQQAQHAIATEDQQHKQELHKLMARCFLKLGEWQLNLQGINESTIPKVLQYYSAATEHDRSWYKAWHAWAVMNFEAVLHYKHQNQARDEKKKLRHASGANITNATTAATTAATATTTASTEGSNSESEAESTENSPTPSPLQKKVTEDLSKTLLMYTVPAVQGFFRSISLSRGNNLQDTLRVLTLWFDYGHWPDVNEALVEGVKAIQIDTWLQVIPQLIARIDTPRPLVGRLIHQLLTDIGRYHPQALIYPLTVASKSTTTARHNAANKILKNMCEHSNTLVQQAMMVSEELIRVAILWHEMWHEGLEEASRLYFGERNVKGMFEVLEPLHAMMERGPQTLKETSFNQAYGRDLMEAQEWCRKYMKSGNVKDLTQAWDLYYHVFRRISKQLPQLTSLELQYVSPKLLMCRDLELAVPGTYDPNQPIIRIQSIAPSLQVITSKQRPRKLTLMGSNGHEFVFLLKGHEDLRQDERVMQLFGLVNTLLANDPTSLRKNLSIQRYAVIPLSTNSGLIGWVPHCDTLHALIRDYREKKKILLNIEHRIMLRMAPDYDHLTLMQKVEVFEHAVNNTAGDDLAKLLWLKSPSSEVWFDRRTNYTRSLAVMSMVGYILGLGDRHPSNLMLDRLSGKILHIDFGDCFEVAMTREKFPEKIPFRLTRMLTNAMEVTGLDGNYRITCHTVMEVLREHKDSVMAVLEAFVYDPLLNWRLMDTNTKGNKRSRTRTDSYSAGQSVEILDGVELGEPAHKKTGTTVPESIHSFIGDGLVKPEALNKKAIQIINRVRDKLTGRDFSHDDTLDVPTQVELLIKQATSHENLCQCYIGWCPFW
Method: Compound inhibition for mTOR kinase was determined by homogeneous TR-FRET assay using ULight-p70 S6K (Thr 389) peptide as substrate. mTOR enzyme (Millipore, US; […]) was used in the assay. The reaction buffer was HEPES (50 mM, pH 7.5), EGTA (1 mM), and MnCl2 (3 mM). Test compound was pre-incubated with mTOR for 30 min followed by 50 nM ULight-p70 S6K (Thr 389) peptide along with ATP (20 μM).
After incubating the reaction mixture for 30 min, Eu-labeled anti-phospho-substrate antibody (1 nM, Perkin Elmer, USA) was added. Fluorescence emission at […] was measured upon excitation at 340 nm. The compound dilution was carried out in 100% DMSO followed by a buffer dilution. The kinase reaction was incubated for 1 h at rt followed by the addition of substrate-ATP mix and incubated at rt for 1 h. The reaction was terminated by the addition of EDTA followed by the addition of detection mix. IC50 values were determined using a sigmoidal dose response curve fit, GraphPad Prism® v5 software.

B-RAFV600E = biological target: T2, B-RAFV600E (Homo sapiens, UniProt P15056, V600E); experiment: B-RAFV600E radiometric assay; format: biochemical; settings: read-out: Kinase assay B-Raf
T2 construct: purchased Millipore, USA 14-557
T2 sequence (P15056 416-766 V600E limits assumed): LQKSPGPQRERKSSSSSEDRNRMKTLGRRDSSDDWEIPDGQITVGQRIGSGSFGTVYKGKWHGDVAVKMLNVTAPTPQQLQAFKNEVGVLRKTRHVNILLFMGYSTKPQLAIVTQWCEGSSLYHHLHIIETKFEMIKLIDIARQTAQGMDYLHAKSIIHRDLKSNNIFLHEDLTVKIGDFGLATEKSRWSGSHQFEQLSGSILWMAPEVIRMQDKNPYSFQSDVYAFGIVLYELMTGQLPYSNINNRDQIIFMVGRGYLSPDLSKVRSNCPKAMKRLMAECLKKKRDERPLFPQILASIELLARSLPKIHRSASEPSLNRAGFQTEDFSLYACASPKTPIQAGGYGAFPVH
Method: Compound inhibition for B-RAFV600E was determined through radiometric assay using a BRAF enzyme (Catalog No. 14-557, Millipore, USA) and MEK-K97M protein as a substrate (Catalog No. 0785-0000-1, ProqQinase GmbH, Germany). The B-RAF kinase catalyzes the phosphorylation of MEK protein in the presence of gamma ATP (PLC-101, Jonaki, CCMB, Hyderabad), cold ATP and Mg^2+.
The phosphorylated protein product is detected by the scintillation counter Topcount® machine (Perkin Elmer). This assay has been adapted from the method previously reported by Yeh et al. (2007, Clinical Cancer Research; 13, 1576-1583). The assay measures the B-RAF mediated transfer of 32P from the gamma position of radiolabeled ATP onto MEK1-KD. The labeled phosphorylated protein was measured in MicroBeta® Trilux Counter (Perkin Elmer). The assay was validated with reference compounds RAF1 Kinase Inhibitor I and ZM 336372 inhibitor which are reported to be inhibitors of B-RAF enzyme (Lackey, 2000, Medicinal Chemistry Letters; 10(3):223-226; Kupcho, “Fluorescent High throughput kinase cascade assays for inhibitor characterization, RAF-MEK-ERK pathway, www.invitrogen.com, and Hall-Jackson, 1999, Chemical Biology; 6(8):559-568). B-RAF enzyme mixture (13 μL) was added to compound wells containing 2 μL of the NCE in 1% DMSO and incubated for 45 min at rt on a shaking incubator at 300 rpm. MEK-K97M (0.5 μg) and cold ATP to a final concentration of 5 μM, and hot ATP 0.1 μCi in a volume of 10 μL was added to each well and incubated for 2 h at rt on a shaking incubator at 300 rpm. The reaction was stopped by addition of […] (13 μL) containing ATP (1 mM: 495 μL 1N HCl and 5 μL 100 mM ATP). Aliquot (30 μL) was then transferred to the center of a 2 cm×2 cm P81 paper. P81 paper was washed 8×5 min each with ortho-phosphoric acid (0.5%). P81 papers are washed twice with acetone for […] Assay squares were allowed to dry for […] at 37° C. P81 paper are transferred to Optiplate™ (Perkin Elmer) and counted in a Topcount® counter (Perkin Elmer). Data was plotted against the compound concentration to generate dose-response curves and IC50 values were determined using a sigmoidal dose response curve fit GraphPad Prism® v5 software.

IC50 (pERK in A375 cells)	IC50 (A375 cells)	IC50 (mTOR kinase)	IC50 (B-RAFV600E)	Structure (SMILES)
1 to 100 nM	1 to 100 nM	100 to 1000 nM	1 to 100 nM	COc1cc(-c2c(F)ccc(NS(=O)(=O)CCCF)c2F)cc2c(N3CCOCC3)nc(-c3cnc(N)nc3)nc12 [Example 82, N-(3-(2-(2-aminopyrimidin-5-yl)-8-methoxy-4-morpholinoquinazolin-6-yl)-2,4-difIuorophenyl)-3-fluoropropane-1-sulfonamide]
100 to 1000 nM		1 to 100 nM	1 to 100 nM	Nc1ccc(-c2nc(N3CCOCC3)c3cc(-c4cccc(NS(=O)(=O)CCCF)c4F)cc(OCCO)c3n2)cn1 [Example 58, N-(3-(2-(6-aminopyridin-3-yl)-8-(2-hydroxyethoxy)-4-morpholinoquinazolin-6-yl)-2-fluorophenyl)-3-fluoropropane-1-sulfonamide]
1000 to 10000 nM		1 to 100 nM	100 to 1000 nM	COc1cc(-c2cccc(NS(=O)(=O)c3c(F)cccc3F)c2F)cc2c(N3CCOCC3)nc(-c3ccc(NC(=O)NCCO)cc3)nc12 [Example 12, 2,6-difluoro-N-(2-fluoro-3-(2-(4-(3-(2-hydroxyethyl)ureido)phenyl)-8-methoxy-4-morpholinoquinazolin-6-yl)phenyl)benzenesulfonamide]
100 to 1000 nM		1 to 100 nM	100 to 1000 nM	CNC(=O)Nc1ccc(-c2nc(N3CCOCC3)c3cc(-c4cccc(NS(=O)(=O)CCCF)c4F)cc(OC)c3n2)cc1 [Example 32, 3-fluoro-N-(2-fiuoro-3-(8-methoxy-2-(4-(3-methylureido)phenyl)-4-morpholinoquinazolin-6-yl)phenyl)propane-1-sulfonamide]
100 to 1000 nM		100 to 1000 nM	100 to 1000 nM	COc1cc(-c2cccc(NS(=O)(=O)c3c(F)cccc3F)c2F)cc2c(N3CCOCC3)nc(-c3cnc4[nH]ccc4c3)nc12 [Example 16, 2,6-difluoro-N-(2-fluoro-3-(8-methoxy-4-morpholino-2-(1H-pyrrolo[2,3-b]pyridin-5-yl)quinazolin-6-yl)phenyl)benzenesulfonamide]
1 to 100 nM		100 to 1000 nM	1 to 100 nM	Nc1ccc(-c2nc(N3CCOCC3)c3cc(-c4cccc(NS(=O)(=O)CCCF)c4F)cc(OCC4CC4)c3n2)cn1 [Example 57, N-(3-(2-(6-aminopyridin-3-yl)-8-(cyclopropylmethoxy)-4-morpholinoquinazolin-6-yl)-2-fluorophenyl)-3-fluoropropane-1-sulfonamide]
		100 to 1000 nM	100 to 1000 nM	COc1cc(-c2cccc(NS(=O)(=O)CCCF)c2F)cc2c(N3CCOC[C@H]3C)nc(-c3cnc4[nH]ccc4c3)nc12 [Example 44, (R)-3-fluoro-N-(2-fluoro-3-(8-methoxy-4-(3-methylmorpholino)-2-(1H-pyrrolo[2,3-b]pyridin-5-yl)quinazolin-6-yl)phenyl)propane-1-sulfonamide]
1 to 100 nM		1 to 100 nM	1 to 100 nM	CCNc1ccc(-c2nc(N3CCOCC3)c3nc(-c4cccc(NS(=O)(=O)CCCF)c4F)ccc3n2)cn1 [Example 123, N-(3-(2-(6-(ethylamino)pyridin-3-yl)-4-morpholinopyrido[3,2-d]pyrimidin-6-yl)-2-fluorophenyl)-3-fluoropropane-1-sulfonamide]
		100 to 1000 nM	1 to 100 nM	COc1cc(-c2cccc(NS(=O)(=O)CCCF)c2F)cc2c(N3CCOC[C@H]3C)nc(-c3cnc(N)cc3C#N)nc12 [Example 144, (R)-N-(3-(2-(6-amino-4-cyanopyridin-3-yl)-8-methoxy-4-(3-methylmorpholino)quinazolin-6-yl)-2-fluorophenyl)-3-fluoropropane-1-sulfonamide]
1 to 100 nM		1 to 100 nM	100 to 1000 nM	COc1cc(-c2cccc(NS(=O)(=O)CCCF)c2F)cc2c(N3CCOCC3)nc(-c3ccc(NC(C)=O)cc3)nc12 [Example 125, N-(4-(6-(2-fluoro-3-(3-fluoropropylsulfonamido)phenyl)-8-methoxy-4-morpholinoquinazolin-2-yl)phenyl)acetamide]
		100 to 1000 nM	1 to 100 nM	C[C@@H]1COCCN1c1nc(-c2cnc(N)c(F)c2)nc2c(OCCF)cc(-c3cccc(NS(=O)(=O)CCCF)c3F)cc12 [Example 142, (R)-N-(3-(2-(6-amino-5-fluoropyridin-3-yl)-8-(2-fluoroethoxy)-4-(3-methylmorpholino)quinazolin-6-yl)-2-fluorophenyl)-3-fluoropropane-1-sulfonamide]
		100 to 1000 nM	1 to 100 nM	COc1cc(-c2cccc(NS(=O)(=O)CCCF)c2F)cc2c(N3CCOCC3)nc(-c3ccc(NC(C)=O)nc3)nc12 [Example 124, N-(5-(6-(2-fluoro-3-(3-fluoropropylsulfonamido)phenyl)-8-methoxy-4-morpholinoquinazolin-2-yl)pyridin-2-yl)acetamide]

— patent US9499495B2, “Quinazolines and azaquinazolines as dual inhibitors of RAS/RAF/MEK/ERK and PI3K/AKT/PTEN/mTOR pathways” (Asana Biosciences, LLC, priority 2013, dated 2016)
